15 compounds from ChEMBL document CHEMBL5214922, “Melphalan: Recent insights on synthetic, analytical and medicinal aspects” (Eur J Med Chem, 2022) can be followed below.

Data set [1] concerns K562. The experiment in a line: Cytotoxicity against human K562 cells assessed as cell growth inhibition incubated for 24 hrs by MTT assay. The note with it: K562, 24 h. It counts as functional, cell-based. For orientation: Tetrazolium dyes change colour on reduction, which living cells bring about.
Data set [2] is described as follows: Cytotoxicity against CHO cells assessed as cell growth inhibition incubated for 48 hrs by AlamarBlue assay. Type of data set: toxicity, cell-based, Cricetulus griseus. Particulars: Chinese hamster. In general terms: Resazurin is reduced to fluorescent resorufin, in cell work by metabolically active cells.
The subject of data set [3] is HT-29. Briefly: Cytotoxicity against human HT-29 cells assessed as cell growth inhibition measured after 24 hrs by MTT assay. Type of data set: functional, cell-based. Particulars: HT-29, 24 h.
The test system of data set [4] is U2OS. Briefly: Cytotoxicity against human U2OS cells assessed as cell growth inhibition. It counts as functional, cell-based.
The subject of data set [5] is SAOS-2. The experiment in a line: Cytotoxicity against human SAOS-2 cells assessed as cell growth inhibition. Type of data set: functional, cell-based.
A short description of data set [6]: Prodrug conversion assessed as drug excretion measured after 6 days by HPLC analysis. It counts as ADME. Particulars: 144 h; time 6 day.
In data set [7] the test system is MC3T3-E1. Briefly: Cytotoxicity against mouse MC3T3-E1 cells assessed as cell growth inhibition. Type of data set: functional, cell-based.
The target in data set [8] is 72 kDa type IV collagenase (Homo sapiens, UniProt P08253). The experiment in a line: Prodrug conversion assessed as MMP-2 (unknown origin)-mediated drug release by measuring half life by HPLC analysis. Type of data set: ADME.
In data set [9] the test system is SK-OV-3. Briefly: Cytotoxicity against human SK-OV-3 cells assessed as inhibition of cell proliferation incubated for 24 hrs by MTT assay. It counts as functional, cell-based. The note with it: SK-OV-3, 24 h.
Data set [10] is described as follows: Retention time of the compound by HPLC analysis. Type of data set: physicochemical.
The nature of data set [11]: Biodistribution in mouse CCRF S-180 tumor cells xenografted in ICR mouse measured after 120 mins. Type of data set: ADME, organism-based. Particulars: read-out: Drug uptake.
A short description of data set [12]: Biodistribution in mouse CCRF S-180 tumor cells xenografted in ICR mouse measured after 240 mins. Type of data set: ADME, organism-based. Particulars: read-out: Drug uptake.
Data set [13] deals with MDA-MB-231. The experiment in a line: Cytotoxicity against human MDA-MB-231 cells assessed as reduction in cell viability at 15 uM incubated for 24 hrs by MTT assay relative to control. Type of data set: functional.
Data set [14] relates to MDA-MB-231. Briefly: Inhibition of DNA synthesis in human MDA-MB-231 cells at 15 uM incubated upto 72 hrs by [3H]thymidine incorporation assay relative to control. It counts as functional. Background: Incorporation of labelled thymidine or its analogues reports DNA synthesis.
In data set [15] the test system is MCF7. Briefly: Cytotoxicity against human MCF7 cells assessed as cell growth inhibition incubated for 48 hrs by AlamarBlue assay. It counts as functional, cell-based. Particulars: MCF7, 48 h.
The test system of data set [16] is Lymphoma cell line. The experiment in a line: Potency index, ratio of Melphalan IC50 to test compound IC50 for cytotoxicity against patient-derived human lymphoma cells assessed as cell growth inhibition incubated for 72 hrs by FMCA assay. It counts as functional.
Data set [17] relates to Lymphoma cell line. Briefly: Cytotoxicity against patient-derived human lymphoma cells assessed as cell growth inhibition incubated for 72 hrs by FMCA assay. Type of data set: functional, cell-based.
Data set [18] deals with MCF7. Briefly: Cytotoxicity against human MCF7 cells assessed as cell growth inhibition incubated for 24 hrs by MTT assay. Type of data set: functional, cell-based. Particulars: MCF7, 24 h.
In data set [19] the test system is H-EMC-SS. Briefly: Cytotoxicity against human H-EMC-SS cells assessed as cell growth inhibition incubated for 72 hrs by resazurin reduction method. It counts as functional, cell-based.
Data set [20] has as its system SAOS-2. The experiment in a line: Cytotoxicity against human SAOS-2 cells assessed as cell growth inhibition incubated for 72 hrs by resazurin reduction method. It counts as functional, cell-based. Particulars: SAOS-2, 72 h.
A short description of data set [21]: Plasma protein binding in human by ultrafiltration method. Type of data set: ADME. Particulars: read-out: PPB (converted).
Data set [22] can be described thus: Plasma protein binding in human assessed as unbound fraction. It counts as ADME.
Data set [23] can be described thus: Plasma protein binding in human. It counts as ADME.

pIC50: −log10 of the molar value. In brackets after ≈: the same amount, converted by molar mass. Non-standard residues stand in square brackets, D forms with d. Residues, ends and D or L forms follow the SMILES beside them. ξ: configuration not given here. *: point of attachment. ξPhe(4-N(CH2CH2Cl)2) = NC(Cc1ccc(N(CCCl)CCCl)cc1)C(=O)O; X1 = O=P(O)(O)C(CN*)P(=O)(O)O

A word on the pIC50: it is the IC50 on a negative log10 scale, so that one unit is a factor of ten. Broadly, the IC50 is the concentration needed to halve the response being measured. Usually inhibition stands for how much of the control response was suppressed.

Chain of 72 kDa type IV collagenase (P08253 whole entry): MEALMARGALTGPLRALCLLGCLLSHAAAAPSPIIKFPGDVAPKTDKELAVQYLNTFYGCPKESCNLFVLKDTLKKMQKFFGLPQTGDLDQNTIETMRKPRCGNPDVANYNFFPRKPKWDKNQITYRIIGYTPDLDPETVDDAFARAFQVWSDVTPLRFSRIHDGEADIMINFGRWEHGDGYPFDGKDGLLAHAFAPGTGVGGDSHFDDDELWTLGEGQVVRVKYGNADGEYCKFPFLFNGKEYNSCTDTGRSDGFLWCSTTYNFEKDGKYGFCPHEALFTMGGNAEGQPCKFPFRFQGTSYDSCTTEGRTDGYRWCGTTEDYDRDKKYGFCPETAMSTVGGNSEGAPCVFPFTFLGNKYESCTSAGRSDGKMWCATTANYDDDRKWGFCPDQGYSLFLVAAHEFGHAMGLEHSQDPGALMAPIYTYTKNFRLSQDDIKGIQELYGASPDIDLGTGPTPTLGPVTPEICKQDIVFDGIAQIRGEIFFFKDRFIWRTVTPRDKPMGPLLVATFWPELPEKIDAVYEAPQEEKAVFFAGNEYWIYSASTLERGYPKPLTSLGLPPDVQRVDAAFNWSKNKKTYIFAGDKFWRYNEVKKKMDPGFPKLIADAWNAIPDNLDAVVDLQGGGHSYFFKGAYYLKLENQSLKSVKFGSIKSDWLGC

`CC1(C)CC(NC(=O)C(N)Cc2ccc(N(CCCl)CCCl)cc2)CC(C)(C)N1[O]` (stereo not drawn): in data set [1], the pIC50 was 4.44.

As for `C/C1=C\CC[C@@]2(C)O[C@H]2[C@H]2OC(=O)C(CNc3ccn(C4OC(CO)[C@H](O)[C@@H]4O)c(=O)n3)[C@@H]2CC1` (stereo partly drawn), the IC50 at 48 h in data set [2] stood at 1.74 µM.

On to `CCOC(=O)CNC(=O)[C@H](Cc1ccc(N(CCCl)CCCl)cc1)NC(=O)[C@@H](N)[C@@H](C)CC`, for which the pIC50 in data set [3] is 4.40.

Take `CC(C)C[C@H](NC(=O)CNC(=O)[C@H](CC(C)C)NC(=O)[C@@H]1CCCN1C(=O)C(N)Cc1ccc(N(CCCl)CCCl)cc1)C(=O)N[C@@H](C)C(=O)NCC(=O)NCC(P(=O)(O)O)P(=O)(O)O` (stereo partly drawn) (H-[ξPhe(4-N(CH2CH2Cl)2)]PLGLAG-X1): the pIC50 in data set [4], in data set [5] and in data set [7] was 6.10 in each case. In addition, the Drug excretion in data set [6] is on record as 75%. Moreover, the t1/2 in data set [8] was 1.25 h.

With `NC1=NC2N=CC(CNc3ccc(C(=O)NCC(CCC(=O)NCC(=O)NCC(=O)NC(Cc4ccc(N(CCCl)CCCl)cc4)C(=O)O)C(=O)NCC(=O)NCC(=O)NC(Cc4ccccc4)C(=O)O)cc3)N=C2C(=O)N1` (stereo not drawn), the IC50 in [9] worked out at 4.1 µg/mL (≈ 3.66 µM).

Regarding `C/C1=C\CC[C@@]2(C)O[C@H]2[C@H]2OC(=O)C(CNC(Cc3ccc(N(CCCl)CCCl)cc3)C(=O)O)[C@@H]2CC1` (stereo partly drawn), in data set [10], the Retention_time amounted to 14.5 min. Besides, the tissue uptake at 2 h in [11] came out at 1.63 %ID/g.

Compound `O=C(O)CN(CCN(CC(=O)O)CC(=O)O)CCN(CC(=O)O)CC(=O)N[C@@H](Cc1ccc(N(CCCl)CCCl)cc1)C(=O)O` registered a Retention_time in data set [10] of 10.72 min. In data set [11], the tissue uptake at 2 h came out at 1.03 %ID/g.

For `CN(C)c1ccc(/C=N\Nc2ccc(CN[C@@H](Cc3ccc(N(CCCl)CCCl)cc3)C(=O)O)cc2)cc1`, the tissue uptake at 4 h in data set [12] turned out to be 0.98 %ID/g.

With `O=C(O)C(Cc1ccc(N(CCCl)CCCl)cc1)NCC(=O)N1CCCC1C(=O)O` (stereo not drawn), the inhibition at 15 µM worked out at 55% in data set [13] and 30% in [14].

Consider `Nc1ccn([C@@H]2O[C@H](CO)[C@@H](O)[C@@H]2O)c(=O)n1` [CYTARABINE], for which the pIC50 in data set [15] was less than 4.70.

Consider `CCOC(=O)[C@H](Cc1ccc(F)cc1)NC(=O)[C@@H](N)Cc1ccc(N(CCCl)CCCl)cc1` [MELPHALAN FLUFENAMIDE], for which, in data set [16], the “Ratio IC50” value was 49. Further, the pIC50 in data set [17] was 7.96.

Regarding `C=C1C(=O)O[C@@H]2C3O[C@]3(C)CC/C=C(\C)CC[C@@H]12` (stereo partly drawn), the pIC50 in data set [15] was less than 4.70.

`COC(=O)C(Cc1ccc(N(CCCl)CCCl)cc1)NC(=O)c1ccc(-c2ccc(C(=N)NC(C)C)cc2)o1` (stereo not drawn): the pIC50 in data set [18] is 4.64.

As to `C[N+](C)(C)CCCNC(=O)[C@@H](N)Cc1ccc(N(CCCl)CCCl)cc1`, the pIC50 was 4.85 in [19] and 4.43 in data set [20].

For the compound `N[C@@H](Cc1ccc(N(CCCl)CCCl)cc1)C(=O)O` [MELPHALAN], the pIC50 in data set [4] was 6.17; in data set [15], less than 4.70; in data set [5], 6.17; in data set [18], 4.11; in data set [7], 6.17; in data set [1], 4.18. For the same compound, the fraction unbound in data set [21] is 0.31. Also, the “Cp(f)” value in [22] was determined as 2500 ng/mL. For the same compound, the inhibition at 15 µM in data set [13] is 40%. The compound further showed a PPB in [23] of 40 µg/mL.
